The results in this text go back to patent publication US4866091A, “Alkanesulfonanilide derivatives, processes for preparation thereof and pharmaceutical composition comprising the same” (Fujisawa Pharmaceutical Co., Ltd., priority 1986, dated 1989).

Each structure is given as a SMILES string. Where two headings read alike, the source gives them in different places.

Test [1] has as its system writhing syndrome induced by acetic acid in mice. Nature of the test: Test 2: writhing syndrome induced by acetic acid in mice (analgesic activity). To be noted: Mus musculus. Format: in vivo, male ddY mice. As to the method:
Writhing syndrome induced by acetic acid in mice Ten male ddY mice were used per group. Writhing syndrome was produced by an intraperitoneal injection of 20 ml/kg of 0.6% acetic acid in mice. The animals were observed from 3 to 13 minutes after acetic acid injection, and a total number of writhing episodes was recorded. The drugs were given orally 1 hour before acetic acid injection. The frequency of writhing in the treated animals was compared with that in the control animals.

In test [2] the test system is pyrexia induced by brewer's yeast in rats. In words: Test 3: anti-pyretic activity, brewer's yeast-induced pyrexia in rats. Format: in vivo, male Sprague-Dawley rats. To be noted: Rattus norvegicus, oral. As to the method:
Anti-pyretic activity Ten male Sprague-Dawley rats were used per group. Pyrexia was induced by SC injection of 10 ml/kg of 5% brewer's yeast suspension. The drugs were given orally […] after yeast injection. Rectal temperature was measured 1 and 2 hours after administration of drugs, and the difference of rectal temperature from that before yeast injection was calculated.

Test [3] has as its system inflammatory hyperalgesia induced by brewer's yeast in rats. In words: Test 5: inflammatory hyperalgesia induced by brewer's yeast in rats (analgesic activity). It counts as in vivo, male Sprague Dawley rats. As to the method: Inflammatory hyperalgesia induced by brewer's yeast in rats
Ten male Sprague Dawley rats were used per group. 0.1 Ml of 5% brewer's yeast suspended in 0.5% methylcellulose was injected into the right hind paw, The pain threshold was determined 3 hours after yeast injection, by applying pressure to the foot and reading the pressure at which the rat withdrew the foot.
The drugs were given orally 2 hours after yeast infection. The pain threshold in the treated animals was compared with that in the control animals.

[4] abbreviates: oral, 1 hour before acetic acid injection, number of writhing episodes 3 to 13 minutes after, read-out: ED50.
[5] abbreviates: rectal temperature 1 hour after administration, read-out: ED50 (1 hr).
The mark [6] stands for this setting: rectal temperature 2 hours after administration, read-out: ED50 (2 hr).

Regarding `CC(=O)c1ccc(NS(C)(=O)=O)c(Oc2ccc(F)cc2F)c1` [Example 1, 4'-acetyl-2'-(2,4-difluorophenoxy)methanesulfonanilide], the ED50 (as a rule, the dose that gives a 50% effect, or the effect in half of the subjects) in test [1] (setting [4]) was 14 mg/kg; in test [2] (setting [5]), 10 mg/kg; in test [2] (setting [6]), 6.8 mg/kg.
Take `CS(=O)(=O)Nc1ccc(C#N)cc1Oc1ccc(F)cc1F` [Example 3, 4'-Cyano-2'-(2,4-difluorophenoxy)methanesulfonanilide]: the ED50 in test [1] (setting [4]) came out at 2.4 mg/kg.
The same measure, in the same setting: for `Cc1cc(NS(C)(=O)=O)c(Oc2ccc(F)cc2F)cc1C#N` [Example 20, 4'-Cyano-2'-(2,4-difluorophenoxy)-5'-methylmethanesulfonanilide] the value was 55.8 mg/kg; for `CC(=O)c1ccc(NS(C)(=O)=O)c(Oc2ccc(F)cc2Cl)c1` [Example 25, 4'-Acetyl-2'-(2-chloro-4-fluorophenoxy)methanesulfonanilide], 9.6 mg/kg.
On the same count and under the same terms, then `CC(=NNC(N)=O)c1ccc(NS(C)(=O)=O)c(Oc2ccc(F)cc2F)c1` [Example 40, 3'-(2,4-difluorophenoxy)-4'-methanesulfonamidoacetophenone semicarbazone], with 18 mg/kg.
Regarding `CS(=O)(=O)Nc1ccc(C#N)cc1Oc1ccc(F)cc1F.[Na]` [Example 73, 4'-cyano-2'-(2,4-difluorophenoxy)methanesulfonanilide sodium salt], in test [3] (po), the ED30 came to 1.8 mg/kg.
As to `COc1ccc2c(c1)c(CC(=O)O)c(C)n2C(=O)c1ccc(Cl)cc1` [Indomethacin, reference compound], the ED30 in test [3] (oral, 2 hours after yeast injection, pain threshold 3 hours after yeast injection, read-out: ED30) worked out at 5.1 mg/kg. Also, the 50% effective dose (ED50) in test [1] (po) was 1.6 mg/kg; in test [2] (setting [5]), 4.6 mg/kg; in test [2] (setting [6]), 2.6 mg/kg.
